In article PMC7113770 (Antiviral Research, 2018):
pIC50: −log10 of the molar value. Read-outs that look alike come from different tables or passages of the source.

Key:
[1] = tested on: Ebola virus; details: read-out: IC50 Ebola virus replication; cited from earlier work
[2] = tested on: hepatocyte-like cells (HLCs); test: WST cell viability in hepatocyte-like cells; assay type: cell-based, human; details: 10 nM silvestrol for 24 h
[3] = tested on: Huh7.5 cells; test: Trypan blue exclusion viable cell counting; assay type: cell-based, human; details: silvestrol 10 nM and 100 nM, 24 h, vs untreated cells
[4] = tested on: HEVp6 replicon (Kernow-C1 p6, gt3); test: HEVp6 subgenomic replicon; details: for IC90: read-out: IC90 (CI)
[5] = tested on: HCV JFH1 subgenomic replicon; test: HCV JFH1 subgenomic replicon replication in Huh7.5; details: for pIC50 / IC90: Hepatitis C virus; for pIC50: read-out: IC50 (CI); for IC90: read-out: IC90 (CI)
[6] = tested on: HepG2/C3A cells; test: MTT cell viability in HEVCC infection assay; assay type: cell-based, human; details: silvestrol 10, 20, 50 nM, all treatment setups
[7] = 0.3 mg/kg daily intraperitoneal, monitored period
[8] = tested on: full-length HEV p6 clone; test: Full-length p6 clone, ORF2 immunofluorescence in Huh7.5; assay type: cell-based, Hepatitis E virus; details: silvestrol 10 nM or RBV, 42 h, added 4 h after transfection
[9] = tested on: gt1 HEV (strain Sar-55); assay type: in vivo; details: 0.3 mg/kg daily intraperitoneal, ten or six days, first days of treatment
[10] = tested on: different HEV constructs; test: Different HEV subgenomic replicons in Huh7.5; details: Hepatitis E virus
[11] = MTT cell viability assay in transfected Huh7.5; assay type: cell-based, human; details: human, transfected Huh7.5 cells, CC50 (CI), 42 h treatment, Huh7.5, CI 95%
[12] = tested on: Huh7.5 cells; test: MTT cell viability assay in transfected Huh7.5; assay type: cell-based, human
[13] = tested on: HEV Sar55/S17 replicon (gt1); test: HEV Sar55/S17 subgenomic replicon replication in Huh7.5
[14] = Hepatitis E virus, GT3, Huh7.5, 24 h, read-out: IC50 (CI), 24 h treatment, Huh7.5, CI 95%
[15] = Hepatitis E virus, GT3, Huh7.5, 24 h
[16] = Hepatitis E virus, GT3, Huh7.5, 42 h, read-out: IC50 (CI), 42 h treatment, Huh7.5, CI 95%
[17] = Hepatitis E virus, GT3, Huh7.5, 42 h
[18] = Hepatitis E virus, GT1, Huh7.5, 24 h, read-out: IC50 (CI), 24 h treatment, Huh7.5, CI 95%
[19] = Hepatitis E virus, GT1, Huh7.5, 42 h, read-out: IC50 (CI), 42 h treatment, Huh7.5, CI 95%

Structure (SMILES) | pIC50 [4, 14] | IC90 [4, 15] | pIC50 [4, 16] | IC90 [4, 17] | pIC50 ([5]; Huh7.5, 24 h) | IC90 ([5]; Huh7.5, 24 h) | pIC50 ([5]; Huh7.5, 42 h) | ORF2 positive cells (immunofluorescence) [8] | pIC50 [13, 18] | pIC50 [13, 19] | further results
COC(=O)[C@H]1[C@@H](O)[C@@]2(O)c3c(OC)cc(O[C@@H]4O[C@@H]([C@H](O)CO)CO[C@H]4OC)cc3O[C@@]2(c2ccc(OC)cc2)[C@@H]1c1ccccc1 [Silvestrol, silvestrol] | 8.35 | 64.7 nM | 8.54 | 27.3 nM | 7.61 | 128 nM | 7.15 | highly reduced | 8.18 | 8.50 | pIC50 [1]: > 9.00; cytotoxicity (WST assay) in HLCs [2]: without cytotoxicity; viable cells (trypan blue cell counting) [3]: no significant reductions; selectivity index ([4]; 42 h, p6 strain, CC50/IC50): about 8.6; pIC50 ([4]; read-out: IC50 (CI), 42 h treatment, Huh7.5, CI 95%): 8.54; IC90 ([5]; Huh7.5, 42 h): 518 nM; susceptibility of HCV reference replicon compared with HEV ([5]; Huh7.5, 24 h): less susceptible; cell viability (MTT) [6]: not reduced; body weight [7]: No changes; HEV RNA in the feces [9]: rapid decline; pIC50 ([10]; Huh7.5, 24 h, read-out: IC50 for the different HEV constructs): 8.18 to 8.40; CC50 at 42 h [11]: 24.8 nM; cytotoxic concentration 50 (CC50) ([12]; 24 h treatment, Huh7.5): did not reach a cytotoxic concentration 50 (CC50); CC50 ([12]; read-out: CC50 (CI), 42 h treatment, Huh7.5, CI 95%): 24.8 nM; IC90 ([13]; Hepatitis E virus, GT1, Huh7.5, 42 h, read-out: IC90 (CI)): 52.8 nM
NC(=O)c1ncn([C@@H]2O[C@H](CO)[C@@H](O)[C@H]2O)n1 [Ribavirin] | 5.09 | 244000 nM | 5.16 | 50400 nM | 4.91 | 128000 nM | 4.20 | highly reduced | 4.37 | 4.52 | pIC50 ([10]; GT1, Huh7.5, 24 h, read-out: IC50 HEV replication): 4.92 to 5.10; pIC50 ([13]; read-out: IC50 (CI), 24 h treatment, Huh7.5, CI 95%): 4.37
